Data set [1] in a line: Ratio of drug level in male C57BL/6 mouse brain to plasma at 10 mg/kg, ip administered as single dose measured at 1 hr measured by LC/MS-MS analysis. The class given is ADME, organism-based. The following applies: read-out: BPR.
Data set [2] is described as follows: Plasma concentration in male C57BL/6 mouse at 10 mg/kg, ip administered as single dose measured at 0.35 hrs measured by LC/MS-MS analysis. The format is ADME, organism-based.
The target of data set [3] is T1, Polycomb complex protein BMI-1 (Homo sapiens) (UniProt P35226).
T1 sequence (whole entry): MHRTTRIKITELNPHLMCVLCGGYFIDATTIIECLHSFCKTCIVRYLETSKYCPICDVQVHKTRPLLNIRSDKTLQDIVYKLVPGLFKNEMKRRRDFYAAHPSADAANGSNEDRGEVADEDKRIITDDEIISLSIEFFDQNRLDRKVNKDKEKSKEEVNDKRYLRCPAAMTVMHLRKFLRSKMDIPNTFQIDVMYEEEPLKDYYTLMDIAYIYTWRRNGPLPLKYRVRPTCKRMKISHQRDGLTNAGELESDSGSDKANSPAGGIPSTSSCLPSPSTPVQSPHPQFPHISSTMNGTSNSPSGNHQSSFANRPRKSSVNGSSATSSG
As to the kind of experiment: Inhibition of BMI1 in human Glioblastoma cell 3D spheres at 7 to 10 nM assessed as reduction in STAT1 levels measured by Western blotting method. Conditions: Glioblastoma cell line, dose 7-10 nM. The format is cell-based.

The nature of data set [4]: Brain concentration in male C57BL/6 mouse at 10 mg/kg, po administered as single dose measured at 12 hrs measured by LC/MS-MS analysis. The class given is ADME, organism-based. The following applies: read-out: Drug uptake.
The nature of data set [5]: Brain concentration in male C57BL/6 mouse at 10 mg/kg, iv administered as single dose measured at 0.35 hrs measured by LC/MS-MS analysis. The class given is ADME, organism-based. Conditions: read-out: Drug uptake.
Data set [6] in a line: Ratio of drug level in male C57BL/6 mouse brain to plasma at 10 mg/kg, ip administered as single dose measured at 3 hrs measured by LC/MS-MS analysis. The format is ADME, organism-based. The following applies: read-out: BPR.
The nature of data set [7]: Efflux ratio of apparent permeability across basolateral to apical membrane over apical to basolateral membrane in human Caco-2 cells measured by LC-MS analysis. The class given is ADME, cell-based.
The nature of data set [8]: Ratio of drug level in male C57BL/6 mouse brain to plasma at 10 mg/kg, po administered as single dose measured at 1 hr measured by LC/MS-MS analysis. The class given is ADME, organism-based. The following applies: read-out: BPR.
Data set [9] can be described thus: Ratio of drug level in male C57BL/6 mouse brain to plasma at 10 mg/kg, po administered as single dose measured at 0.35 hrs measured by LC/MS-MS analysis. The class given is ADME, organism-based. The following applies: read-out: BPR.
A short description of data set [10]: Brain concentration in male C57BL/6 mouse at 10 mg/kg, iv administered as single dose measured at 6 hrs measured by LC/MS-MS analysis. The format is ADME, organism-based. The following applies: read-out: Drug uptake.
A short description of data set [11]: Brain concentration in male C57BL/6 mouse at 10 mg/kg, iv administered as single dose measured at 0.08 hrs measured by LC/MS-MS analysis. The format is ADME, organism-based. The following applies: read-out: Drug uptake.
Data set [12] in a line: Plasma concentration in male C57BL/6 mouse at 10 mg/kg, ip administered as single dose measured at 0.08 hrs measured by LC/MS-MS analysis. The format is ADME, organism-based.

Molecules are shown by their SMILES. Activity calls are given as the source filed them. The rule behind the calls is not given here.

The results in this text go back to ChEMBL document CHEMBL5052840, “Pharmaceutical compounds and therapeutic methods” (2020).

On to `Cc1nc2ccccn2c1-c1csc(Nc2ccc3c(c2)OC(F)(F)O3)n1.Cl`, for which the Kp at 1 h in data set [1] was 2.78; in data set [8] it was 2.01. The concentration at 0.35 h in [2] is 426 ng/mL; in data set [5] it was 514 ng/g. Besides, in data set [3], the inhibition result was “Active”. Besides, in data set [4], the concentration at 12 h stood at 3.9 ng/g. In addition, the Kp at 3 h in [6] turned out to be 1.6. The Ratio in data set [7] is reported as 0.9. The Kp at 0.35 h in data set [9] was 1.6. For the same compound, in [10], the concentration at 6 h came out at 5.13 ng/g. In addition, the concentration at 0.08 h came to 1660 ng/g in data set [11] and 713 ng/mL in data set [12].
